# Experimental data from PubChem BioAssay AID2060603 (Molecular Pharmacology Branch, DTP, NCI, 2025).
# System: 422866-222-R5-J1-PDC spheroid viability
# Assay: Anticancer human tumor 422866-222-R5-J1-PDC patient-derived pancreatic adenocarcinoma cell line growth inhibition [CLK]
# Conditions: spheroids with HUVEC and MSC; for IC50: curve of first compound; for viability, T/C: stronger effect = lower value
# Outline: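 Multi-cell-type spheroids combined patient-derived tumor cells with HUVEC endothelial cells and human mesenchymal stem cells. Paired agents were dosed in half-log steps down from about clinical Cmax, or from 10 microM where Cmax was unknown.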
# 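Also: spheroids exposed to agents for seven days before readout.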
smiles,measurement,setting,value
CC1(C)CCC(CN2CCN(c3ccc(C(=O)NS(=O)(=O)c4ccc(NCC5CCOCC5)c([N+](=O)[O-])c4)c(Oc4cnc5[nH]ccc5c4)c3)CC2)=C(c2ccc(Cl)cc2)C1 + CN1CCN(c2cc(C(=O)Nc3cc4cc(-c5cnn(C)c5)ccc4cn3)ccn2)CC1,IC50,second compound 0.0316 µM,> 10000 nM
same,IC50,second compound 0.1 µM,> 10000 nM
same,IC50,second compound 0.316 µM,7960 nM
same,IC50,second compound 1 µM,< 31.6 nM
same,IC50,second compound 3.16 µM,< 31.6 nM
same,IC50,second compound 10 µM,< 31.6 nM
same,"viability, T/C","second compound 0.0316 µM, first compound 0.0316 µM",105%
same,"viability, T/C","second compound 0.0316 µM, first compound 0.1 µM",104%
same,"viability, T/C","second compound 0.0316 µM, first compound 0.316 µM",101%
same,"viability, T/C","second compound 0.0316 µM, first compound 1 µM",115%
same,"viability, T/C","second compound 0.0316 µM, first compound 3.16 µM",113%
same,"viability, T/C","second compound 0.0316 µM, first compound 10 µM",69.3%
same,"viability, T/C","second compound 0.1 µM, first compound 0.0316 µM",111%
same,"viability, T/C","second compound 0.1 µM, first compound 0.1 µM",117%
same,"viability, T/C","second compound 0.1 µM, first compound 0.316 µM",105%
same,"viability, T/C","second compound 0.1 µM, first compound 1 µM",109%
same,"viability, T/C","second compound 0.1 µM, first compound 3.16 µM",95.8%
same,"viability, T/C","second compound 0.1 µM, first compound 10 µM",58.3%
same,"viability, T/C","second compound 0.316 µM, first compound 0.0316 µM",89.2%
same,"viability, T/C","second compound 0.316 µM, first compound 0.1 µM",107%
same,"viability, T/C","second compound 0.316 µM, first compound 0.316 µM",96.5%
same,"viability, T/C","second compound 0.316 µM, first compound 1 µM",91.2%
same,"viability, T/C","second compound 0.316 µM, first compound 3.16 µM",91.9%
same,"viability, T/C","second compound 0.316 µM, first compound 10 µM",39.6%
same,"viability, T/C","second compound 1 µM, first compound 0.0316 µM",26.1%
same,"viability, T/C","second compound 1 µM, first compound 0.1 µM",26.1%
same,"viability, T/C","second compound 1 µM, first compound 0.316 µM",22.1%
same,"viability, T/C","second compound 1 µM, first compound 1 µM",27.5%
same,"viability, T/C","second compound 1 µM, first compound 3.16 µM",25.1%
same,"viability, T/C","second compound 1 µM, first compound 10 µM",12.1%
same,"viability, T/C","second compound 3.16 µM, first compound 0.0316 µM",11.2%
same,"viability, T/C","second compound 3.16 µM, first compound 0.1 µM",10.1%
same,"viability, T/C","second compound 3.16 µM, first compound 0.316 µM",8.93%
same,"viability, T/C","second compound 3.16 µM, first compound 1 µM",9.29%
same,"viability, T/C","second compound 3.16 µM, first compound 3.16 µM",8.57%
same,"viability, T/C","second compound 3.16 µM, first compound 10 µM",0.67%
same,"viability, T/C","second compound 10 µM, first compound 0.0316 µM",3.46%
same,"viability, T/C","second compound 10 µM, first compound 0.1 µM",3.09%
same,"viability, T/C","second compound 10 µM, first compound 0.316 µM",2.86%
same,"viability, T/C","second compound 10 µM, first compound 1 µM",1.74%
same,"viability, T/C","second compound 10 µM, first compound 3.16 µM",2.12%
same,"viability, T/C","second compound 10 µM, first compound 10 µM",1.57%
NC(=O)C(=Cn1cnc(-c2cc(C(F)(F)F)cc(C(F)(F)F)c2)n1)c1cncnc1 + CN1CCN(c2cc(C(=O)Nc3cc4cc(-c5cnn(C)c5)ccc4cn3)ccn2)CC1,IC50,second compound 0.0316 µM,> 3000 nM
same,IC50,second compound 0.1 µM,> 3000 nM
same,IC50,second compound 0.316 µM,55.8 nM
same,IC50,second compound 1 µM,< 9.49 nM
same,IC50,second compound 3.16 µM,< 9.49 nM
same,IC50,second compound 10 µM,< 9.49 nM
same,"viability, T/C","second compound 0.0316 µM, first compound 0.00949 µM",123%
same,"viability, T/C","second compound 0.0316 µM, first compound 0.03 µM",117%
same,"viability, T/C","second compound 0.0316 µM, first compound 0.0949 µM",80%
same,"viability, T/C","second compound 0.0316 µM, first compound 0.3 µM",48.4%
same,"viability, T/C","second compound 0.0316 µM, first compound 0.949 µM",66.3%
same,"viability, T/C","second compound 0.0316 µM, first compound 3 µM",78.4%
same,"viability, T/C","second compound 0.1 µM, first compound 0.00949 µM",110%
same,"viability, T/C","second compound 0.1 µM, first compound 0.03 µM",94.6%
same,"viability, T/C","second compound 0.1 µM, first compound 0.0949 µM",73.8%
same,"viability, T/C","second compound 0.1 µM, first compound 0.3 µM",32.1%
same,"viability, T/C","second compound 0.1 µM, first compound 0.949 µM",55.6%
same,"viability, T/C","second compound 0.1 µM, first compound 3 µM",67.4%
same,"viability, T/C","second compound 0.316 µM, first compound 0.00949 µM",66.5%
same,"viability, T/C","second compound 0.316 µM, first compound 0.03 µM",63.8%
same,"viability, T/C","second compound 0.316 µM, first compound 0.0949 µM",38.2%
same,"viability, T/C","second compound 0.316 µM, first compound 0.3 µM",21.9%
same,"viability, T/C","second compound 0.316 µM, first compound 0.949 µM",21%
same,"viability, T/C","second compound 0.316 µM, first compound 3 µM",20.9%
same,"viability, T/C","second compound 1 µM, first compound 0.00949 µM",15.6%
same,"viability, T/C","second compound 1 µM, first compound 0.03 µM",14.2%
same,"viability, T/C","second compound 1 µM, first compound 0.0949 µM",15.1%
same,"viability, T/C","second compound 1 µM, first compound 0.3 µM",22.4%
same,"viability, T/C","second compound 1 µM, first compound 0.949 µM",22.9%
same,"viability, T/C","second compound 1 µM, first compound 3 µM",14.5%
same,"viability, T/C","second compound 3.16 µM, first compound 0.00949 µM",12.9%
same,"viability, T/C","second compound 3.16 µM, first compound 0.03 µM",15.1%
same,"viability, T/C","second compound 3.16 µM, first compound 0.0949 µM",18.3%
same,"viability, T/C","second compound 3.16 µM, first compound 0.3 µM",18.9%
same,"viability, T/C","second compound 3.16 µM, first compound 0.949 µM",19.9%
same,"viability, T/C","second compound 3.16 µM, first compound 3 µM",18.5%
same,"viability, T/C","second compound 10 µM, first compound 0.00949 µM",2.84%
same,"viability, T/C","second compound 10 µM, first compound 0.03 µM",1.47%
same,"viability, T/C","second compound 10 µM, first compound 0.0949 µM",2.11%
same,"viability, T/C","second compound 10 µM, first compound 0.3 µM",1.91%
same,"viability, T/C","second compound 10 µM, first compound 0.949 µM",6.33%
same,"viability, T/C","second compound 10 µM, first compound 3 µM",9.39%
